Experimental data taken from US10405547B2, “Substituted cyclic amides as herbicides” (FMC Corporation, priority 2015, dated 2019).

Assays:
Assay type in all cases: in vivo
[1] = system: ryegrass, Italian (Lolium multiflorum); experiment: Test A postemergence, Italian ryegrass; conditions: visual injury, 0 to 100 scale (0 no effect, 100 complete control), approximately 10 days
How it was run: (§1)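 Greenhouse pot test in loam/sand soil. Pre: directed soil spray after seeding. Post: 1–2-leaf plants, 2–10 cm. Formulation: non-phytotoxic solvent + surfactant. Visual rating vs untreated controls at ~10 d, 0 (no effect) to 100 (complete control).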

[2] = system: pigweed (Amaranthus retroflexus); experiment: Test A preemergence, pigweed; conditions: 0 to 100 scale (0 no effect, 100 complete control)
How it was run: as §1

[3] = system: pigweed (Amaranthus retroflexus); experiment: Test A postemergence, pigweed; conditions: visual injury, 0 to 100 scale (0 no effect, 100 complete control), approximately 10 days
How it was run: as §1

[4] = system: wheat (Triticum aestivum); experiment: Test A postemergence, wheat; conditions: visual injury, 0 to 100 scale (0 no effect, 100 complete control), approximately 10 days
How it was run: as §1

[5] = system: galium (catchweed bedstraw, Galium aparine); experiment: Test A postemergence, galium; conditions: visual injury, 0 to 100 scale (0 no effect, 100 complete control), approximately 10 days
How it was run: as §1

[6] = system: foxtail, giant (Setaria faberii); experiment: Test A postemergence, giant foxtail; conditions: visual injury, 0 to 100 scale (0 no effect, 100 complete control), approximately 10 days
How it was run: as §1

[7] = system: ragweed (common ragweed, Ambrosia elatior); experiment: Test A preemergence, ragweed; conditions: 0 to 100 scale (0 no effect, 100 complete control)
How it was run: as §1

rice (Oryza sativa) = experiment: Test B flooded paddy test, rice; conditions: applied to paddy water, visual rating after 13 to 15 days, scale 0 (no effect) to 100 (complete control)
How it was run: (§2)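 Pots were flooded to 3 cm above the soil surface at treatment, compound applied directly to the paddy water, and that depth held throughout. Plants were kept in a greenhouse for 13 to 15 days, then visually rated against untreated controls.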

kochia (Kochia scoparia) [8] = experiment: Test A preemergence, kochia; conditions: 0 to 100 scale (0 no effect, 100 complete control)
How it was run: as §1

[9] = system: barnyardgrass (Echinochloa crus-galli); experiment: Test A postemergence, barnyardgrass; conditions: visual injury, 0 to 100 scale (0 no effect, 100 complete control), approximately 10 days
How it was run: as §1

[10] = system: barnyardgrass (Echinochloa crus-galli); experiment: Test A preemergence, barnyardgrass; conditions: 0 to 100 scale (0 no effect, 100 complete control)
How it was run: as §1

[11] = system: barnyardgrass (Echinochloa crus-galli); experiment: Test B flooded paddy test, barnyardgrass; conditions: applied to paddy water, visual rating after 13 to 15 days, scale 0 (no effect) to 100 (complete control)
How it was run: as §2

[12] = system: ragweed (common ragweed, Ambrosia elatior); experiment: Test A postemergence, ragweed; conditions: visual injury, 0 to 100 scale (0 no effect, 100 complete control), approximately 10 days
How it was run: as §1

[13] = system: foxtail, giant (Setaria faberii); experiment: Test A preemergence, giant foxtail; conditions: 0 to 100 scale (0 no effect, 100 complete control)
How it was run: as §1

[14] = system: ryegrass, Italian (Lolium multiflorum); experiment: Test A preemergence, Italian ryegrass; conditions: 0 to 100 scale (0 no effect, 100 complete control)
How it was run: as §1

kochia (Kochia scoparia) [15] = experiment: Test A postemergence, kochia; conditions: visual injury, 0 to 100 scale (0 no effect, 100 complete control), approximately 10 days
How it was run: as §1

[16] = system: blackgrass (Alopecurus myosuroides); experiment: Test A postemergence, blackgrass; conditions: visual injury, 0 to 100 scale (0 no effect, 100 complete control), approximately 10 days
How it was run: as §1

[17] = system: ducksalad (Heteranthera limosa); experiment: Test B flooded paddy test, ducksalad; conditions: applied to paddy water, visual rating after 13 to 15 days, scale 0 (no effect) to 100 (complete control)
How it was run: as §2

[18] = system: sedge, umbrella (small-flower umbrella sedge, Cyperus difformis); experiment: Test B flooded paddy test, umbrella sedge; conditions: applied to paddy water, visual rating after 13 to 15 days, scale 0 (no effect) to 100 (complete control)
How it was run: as §2

corn (Zea mays) = experiment: Test A postemergence, corn; conditions: visual injury, 0 to 100 scale (0 no effect, 100 complete control), approximately 10 days
How it was run: as §1

SMILES	Plant response rating, Ryegrass, Italian ([1]; 125 g ai/ha)	Plant response rating, Ryegrass, Italian ([1]; 500 g ai/ha)	Plant response rating, Pigweed ([2]; 125 g ai/ha)	Plant response rating, Pigweed ([2]; 500 g ai/ha)	Plant response rating, Pigweed ([3]; 125 g ai/ha)	Plant response rating, Pigweed ([3]; 500 g ai/ha)	Plant response rating, Wheat ([4]; 125 g ai/ha)	Plant response rating, Wheat ([4]; 500 g ai/ha)	Plant response rating, Galium ([5]; 125 g ai/ha)	Plant response rating, Galium ([5]; 500 g ai/ha)	Plant response rating, Foxtail, Giant ([6]; 125 g ai/ha)	Plant response rating, Foxtail, Giant ([6]; 500 g ai/ha)	Plant response rating, Ragweed ([7]; 125 g ai/ha)	Plant response rating, Ragweed ([7]; 500 g ai/ha)	Plant response rating, Kochia (kochia (Kochia scoparia) [8]; 125 g ai/ha)	Plant response rating, Kochia (kochia (Kochia scoparia) [8]; 500 g ai/ha)	Plant response rating, Barnyardgrass ([9]; 125 g ai/ha)	Plant response rating, Barnyardgrass ([9]; 500 g ai/ha)	Plant response rating, Barnyardgrass ([10]; 125 g ai/ha)	Plant response rating, Barnyardgrass ([10]; 500 g ai/ha)	also measured
O=C1NCC(c2cccc(Cn3ccc(C(F)(F)F)n3)c2)C1C(=O)Nc1cccc(F)c1F (stereo not drawn) [Compound 25, N-(2,3-difluorophenyl)-2-oxo-4-[3-[[3-(trifluoromethyl)-1H-pyrazol-1-yl]methyl]phenyl]-3-pyrrolidinecarboxamide]	0	0	0	0	0	0	0	0	0	0	20	60	0	0	0	20	20	60	20	40	Plant response rating, Rice (Flood) (rice (Oryza sativa); 500 g ai/ha): 15; Plant response rating, Barnyardgrass (Flood) ([11]; 500 g ai/ha): 0; Plant response rating, Ragweed ([12]; 125 g ai/ha): 0; Plant response rating, Ragweed ([12]; 500 g ai/ha): 0; Plant response rating, Foxtail, Giant ([13]; 125 g ai/ha): 50; Plant response rating, Foxtail, Giant ([13]; 500 g ai/ha): 80; Plant response rating, Ryegrass, Italian ([14]; 125 g ai/ha): 0; Plant response rating, Ryegrass, Italian ([14]; 500 g ai/ha): 0; Plant response rating, Kochia (kochia (Kochia scoparia) [15]; 125 g ai/ha): 0; Plant response rating, Kochia (kochia (Kochia scoparia) [15]; 500 g ai/ha): 0; Plant response rating, Blackgrass ([16]; 125 g ai/ha): 0; Plant response rating, Blackgrass ([16]; 500 g ai/ha): 0; Plant response rating, Ducksalad (Flood) ([17]; 500 g ai/ha): 60; Plant response rating, Sedge, Umbrella (Flood) ([18]; 500 g ai/ha): 0; Plant response rating, Corn (corn (Zea mays); 125 g ai/ha): 0; Plant response rating, Corn (corn (Zea mays); 500 g ai/ha): 0
O=C1NCC(c2cccc(OC(F)(F)C(F)OC(F)(F)F)c2)C1C(=O)Nc1ccccc1F (stereo not drawn) [Compound 40]	0	0	0	0	0	0	0	20	40	40	40	60	0	20	0	90	50	40	50	90	Plant response rating, Rice (Flood) (rice (Oryza sativa); 250 g ai/ha): 0; Plant response rating, Barnyardgrass (Flood) ([11]; 250 g ai/ha): 20; Plant response rating, Ragweed ([12]; 125 g ai/ha): 0; Plant response rating, Ragweed ([12]; 500 g ai/ha): 0; Plant response rating, Foxtail, Giant ([13]; 125 g ai/ha): 90; Plant response rating, Foxtail, Giant ([13]; 500 g ai/ha): 90; Plant response rating, Ryegrass, Italian ([14]; 125 g ai/ha): 0; Plant response rating, Ryegrass, Italian ([14]; 500 g ai/ha): 0; Plant response rating, Kochia (kochia (Kochia scoparia) [15]; 125 g ai/ha): 0; Plant response rating, Kochia (kochia (Kochia scoparia) [15]; 500 g ai/ha): 0; Plant response rating, Blackgrass ([16]; 125 g ai/ha): 0; Plant response rating, Blackgrass ([16]; 500 g ai/ha): 30; Plant response rating, Ducksalad (Flood) ([17]; 250 g ai/ha): 70; Plant response rating, Sedge, Umbrella (Flood) ([18]; 250 g ai/ha): 0; Plant response rating, Corn (corn (Zea mays); 125 g ai/ha): 0; Plant response rating, Corn (corn (Zea mays); 500 g ai/ha): 0
O=C1NCC(c2cccc(OCc3ccccc3)c2)C1C(=O)Nc1ccc(F)cc1F (stereo not drawn) [Compound 64]	0	0	0	0	0	0	0	0	0	0	0	0	0	0	0	0	0	0	0	0	Plant response rating, Rice (Flood) (rice (Oryza sativa); 500 g ai/ha): 0; Plant response rating, Barnyardgrass (Flood) ([11]; 500 g ai/ha): 0; Plant response rating, Ragweed ([12]; 125 g ai/ha): 0; Plant response rating, Ragweed ([12]; 500 g ai/ha): 0; Plant response rating, Foxtail, Giant ([13]; 125 g ai/ha): 0; Plant response rating, Foxtail, Giant ([13]; 500 g ai/ha): 0; Plant response rating, Ryegrass, Italian ([14]; 125 g ai/ha): 0; Plant response rating, Ryegrass, Italian ([14]; 500 g ai/ha): 0; Plant response rating, Kochia (kochia (Kochia scoparia) [15]; 125 g ai/ha): 0; Plant response rating, Kochia (kochia (Kochia scoparia) [15]; 500 g ai/ha): 0; Plant response rating, Blackgrass ([16]; 125 g ai/ha): 0; Plant response rating, Blackgrass ([16]; 500 g ai/ha): 0; Plant response rating, Ducksalad (Flood) ([17]; 500 g ai/ha): 35; Plant response rating, Sedge, Umbrella (Flood) ([18]; 500 g ai/ha): 0; Plant response rating, Corn (corn (Zea mays); 125 g ai/ha): 0; Plant response rating, Corn (corn (Zea mays); 500 g ai/ha): 0
O=C1NCC(c2cccc(Oc3ncc(F)cn3)c2)C1C(=O)Nc1ccccc1F (single isomer, unassigned) [Compound 39]	0	20	0	0	0	20	0	60	0	30	70	80	0	50	30	50	70	100	70	90	Plant response rating, Rice (Flood) (rice (Oryza sativa); 250 g ai/ha): 0; Plant response rating, Barnyardgrass (Flood) ([11]; 250 g ai/ha): 0; Plant response rating, Ragweed ([12]; 125 g ai/ha): 0; Plant response rating, Ragweed ([12]; 500 g ai/ha): 30; Plant response rating, Foxtail, Giant ([13]; 125 g ai/ha): 90; Plant response rating, Foxtail, Giant ([13]; 500 g ai/ha): 100; Plant response rating, Ryegrass, Italian ([14]; 125 g ai/ha): 0; Plant response rating, Ryegrass, Italian ([14]; 500 g ai/ha): 60; Plant response rating, Kochia (kochia (Kochia scoparia) [15]; 125 g ai/ha): 0; Plant response rating, Kochia (kochia (Kochia scoparia) [15]; 500 g ai/ha): 0; Plant response rating, Blackgrass ([16]; 125 g ai/ha): 0; Plant response rating, Blackgrass ([16]; 500 g ai/ha): 40; Plant response rating, Ducksalad (Flood) ([17]; 250 g ai/ha): 75; Plant response rating, Sedge, Umbrella (Flood) ([18]; 250 g ai/ha): 0; Plant response rating, Corn (corn (Zea mays); 125 g ai/ha): 30; Plant response rating, Corn (corn (Zea mays); 500 g ai/ha): 70
